Structures can show the parent of a compound that is named as a salt. Where two headings read alike, the source gives them in different places.

The test system of data set [1] is T. b. rhodesiense STIB-900 strain. Briefly: T. b. rhodesiense growth assay (resazurin, 3 days). It counts as cell-based, Trypanosoma brucei rhodesiense. As to conditions: Trypanosoma brucei, RHODESIENSE, 72 h. The procedure:
(§1) The MRC-5SV2 human lung fibroblast cell line was cultured in MEM + Earle’s salts-medium, supplemented with 2 mM L-glutamine, 16.5 mM NaHCO3, and 5% inactivated fetal calf serum. For evaluating the antileishmanial activity, the L. infantum MHOM/MA(BE)/67 strain was used. This strain was maintained in a Golden hamster (Mesocricetus auratus). Amastigotes were collected from the spleen of an infected donor hamster using differential centrifugation. Primary peritoneal mouse macrophages were used as host cells and were collected 2 days after peritoneal stimulation with a 2% potato starch suspension. For the intracellular T. cruzi assays, the Tulahuen CL2 strain was used that expresses β-galactosidase. The strain was maintained in MRC-5SV2 cells in MEM medium. The T. b. brucei Squib 427 strain or T. b. rhodesiense STIB-900 strain was used for screening against the extracellular African trypanosomes. The strains were maintained in Hirumi’s Modified Iscove’s medium-9 (HMI-9), supplemented with 10% inactivated fetal calf serum. All cultures and assays were performed at 37 °C with 5% CO2.
(§2) Compound stock solutions were prepared in 100% DMSO at 20 mM. The compounds were serially pre-diluted by robotic plate production (4-fold) in DMSO followed by a further (intermediate) dilution in demineralized water to assure a final in-test DMSO concentration of <1%. Identical test plates containing 10 µL of the different concentrations of each compound were produced for the different assays. For the cytotoxicity assays, 5 concentrations per compound were tested (64–16–4–1–0.25 µM). For the parasitic assays, 10 concentrations per compound were tested, ranging from 64 µM to 0.2 nM.
(§3) Parasite suspensions (1.5 × 10^4 T. b. brucei/well or 4 × 10^3 T. b. rhodesiense/well) in HMI-9 medium were exposed in a total volume of 200 µL to 10 µL of the compound dilutions Parasite growth was assessed fluorimetrically after 3 days of incubation by the addition of 50 µL resazurin per well. After 6 h (T. b. rhodesiense) or 24 h (T. b. brucei) at 37 °C, fluorescence was measured (λex 550 nm, λem 590 nm), from which viability and EC50 values could be determined.

The subject of data set [2] is Trypanosoma cruzi Tulahuen CL2 strain. As to the kind of experiment: Intracellular T. cruzi assay in MRC-5 cells (β-galactosidase/CPRG, 7 days). It counts as cell-based. Particulars: Trypanosoma cruzi, TULAHUEN, MRC5, 168 h, intracellular in MRC-5 cells. The protocol: as §1, §2
MRC-5 cells were infected in 96-well plates using a harvested T. cruzi inoculum (4 × 10^3 MRC-5 cells/well + 4 × 10^4 parasites/well) and exposed to 10 µL of the compound dilutions (200 µL/well total volume). Parasite growth determined after 7 days of incubation and compared to untreated infected controls following the addition of the substrate CPRG (chlorophenolred ß-D-galactopyranoside): 50 µL/well of a stock solution containing 15.2 mg CPRG + 250 µL Nonidet in 100 mL PBS. The absorbance was measured spectrophotometrically at 540 nm after 4 h incubation at 37 °C and EC50 values were calculated.

Data set [3] concerns L. infantum MHOM/MA(BE)/67 strain. Briefly: L. infantum intracellular amastigote assay in PMM (Giemsa, 5 days). It counts as cell-based, Leishmania infantum. The procedure: as §1, §2
Primary peritoneal mouse macrophages (PMMs) were prepared in RPMI-1640 medium, supplemented with 2 mM L-glutamine, 16.5 mM NaHCO3, and 5% inactivated fetal calf serum. The macrophages are infected after 48 h with spleen-derived L. infantum amastigotes (3 × 10^4 PMM + 4.5 × 10^5 parasites/well). The compounds were added after 2 h of infection. After 5 days incubation, parasite burdens (mean number of amastigotes/macrophage) were assessed microscopically after staining with a 10% Giemsa solution and EC50 values were calculated.

Data set [4] deals with T. b. brucei Squib 427 strain. As to the kind of experiment: T. b. brucei growth assay (resazurin, 3 days). It counts as cell-based, Trypanosoma brucei brucei. Particulars: Trypanosoma brucei, 72 h. The protocol:
as §1, §2, §3
(Alamar Blue is a resazurin reagent that responds to reducing activity.)

Data set [5] is described as follows: Cytotoxicity assay, MRC-5SV2 cells, resazurin, 3 days. The class given is cell-based. As to conditions: human, MRC-5SV2 human lung fibroblast cells, MRC-5 cells, highest concentration 64 µM. The protocol: The series of final products (13–69) was investigated in vitro on the human fetal lung fibroblast cell line MRC-5 (Table 1) to assess cytotoxicity toward normal (i.e., non-malignant) human cells. […] As explained earlier, these are important pathogens for humans or cattle (T. b. brucei) and a persistent need for new therapeutics exists for these parasites. As a part of the antiparasitic tests, cytotoxicity against primary mouse macrophages (PMMs) was also evaluated. These murine cells serve as host cells for parasites in the L. infantum assay. Therefore, the murine macrophage assay not only offers additional cytotoxicological insight but is also essential to interpreting the readout of the L. infantum assay.
as §1, §2
Assays were performed in sterile 96-well microtiter plates, each well containing 10 µL of the watery compound dilutions together with 190 µL of MRC-5SV2 inoculum (1.5 × 10^5 cells/mL). Cell growth was compared to untreated control wells (100% cell growth) and medium-control wells (0% cell growth). After 3 days incubation, MRC-5 viability was assessed fluorimetrically after addition of 50 μL resazurin per well (final concentration of 10 µg mL^−1). After 4 h at 37 °C, fluorescence was measured (λex 550 nm, λem 590 nm). The results were expressed as % reduction in cell growth/viability compared to positive (100% growth–0% inhibition) and negative (0% growth–100% inhibition) control wells from which EC50 values (50% effective concentrations) were derived using an excel macro that calculates the interpolation of the concentrations corresponding to the flanking points, just above and just below 50% inhibition.

[6] abbreviates: read-out: T. b. rhod. (EC50, µM), 3 days.
The mark [7] stands for this setting: Leishmania infantum, 120 h, read-out: L. inf. (EC50, µM), amastigotes in PMM, 5 days.
Where [8] appears, read: read-out: T. b. bruc. (EC50, µM), 3 days.
Where [9] appears, read: 3 days, read-out: T. b. rhod. (EC50).
Setting [10] is: Leishmania infantum, 120 h, amastigotes in PMM, 5 days, read-out: L. inf. (EC50).
Setting [11] is: 3 days, read-out: T. b. bruc. (EC50).

As for `O=C(NCCN1CCOCC1)c1cn(-c2ccccc2)nc1-c1ccc2c(c1)OCCO2` [Compound 44, 3-(2,3-dihydrobenzo[b][1,4]dioxin-6-yl)-N-(2-morpholinoethyl)-1-phenyl-1H-pyrazole-4-carboxamide hydrochloride], the EC50 in data set [1] (setting [6]) is 19 µM; in data set [2], 64 µM; in data set [3] (setting [7]), 9.51 µM; in data set [3] (read-out: L. inf. (EC50), amastigotes in PMM, 5 days) it was 8.3 µM; in data set [4] (setting [8]), more than 64 µM. For the same molecule, in data set [5], the EC50 at 3 days was more than 64 µM.

For `Fc1ccc(COCc2cn(-c3ccccc3)nc2-c2ccc3c(c2)OCCO3)cc1` [Compound 45, 3-(2,3-dihydrobenzo[b][1,4]dioxin-6-yl)-4-(((4-fluorobenzyl)oxy)methyl)-1-phenyl-1H-pyrazole], the EC50 in data set [1] (setting [9]) is 7.16 µM; in data set [2] it was 5.51 µM; in data set [3] (setting [10]), 22.6 µM; in data set [4] (setting [11]), 27.2 µM. For the same molecule, in data set [5], the EC50 at 3 days was more than 64 µM.

Turning to `c1ccc(-n2cc(COCc3cn(-c4ccccc4)nc3-c3ccc4c(c3)OCCO4)nn2)cc1` [Compound 46, 4-(((3-(2,3-dihydrobenzo[b][1,4]dioxin-6-yl)-1-phenyl-1H-pyrazol-4-yl)methoxy)methyl)-1-phenyl-1H-1,2,3-triazole], the EC50 in data set [1] (setting [9]) was 2.18 µM; in data set [2], more than 64 µM; in data set [3] (setting [10]), 32.5 µM; in data set [4] (setting [11]) it was 9.04 µM. Besides, the EC50 at 3 days in data set [5] is more than 64 µM.

As for `Fc1ccc(-n2cc(COCc3cn(-c4ccccc4)nc3-c3ccc4c(c3)OCCO4)nn2)cc1` [Compound 47, 4-(((3-(2,3-dihydrobenzo[b][1,4]dioxin-6-yl)-1-phenyl-1H-pyrazol-4-yl)methoxy)methyl)-1-(4-fluorophenyl)-1H-1,2,3-triazole], the EC50 was 5.56 µM in data set [1] (setting [9]), 64 µM in data set [2], more than 64 µM in data set [3] (setting [10]) and 55.9 µM in data set [4] (setting [11]). In addition, the EC50 at 3 days in data set [5] was 51.5 µM.

For the molecule `c1ccc(Cn2cc(COCc3cn(-c4ccccc4)nc3-c3ccc4c(c3)OCCO4)nn2)cc1` [Compound 48, 1-benzyl-4-(((3-(2,3-dihydrobenzo[b][1,4]dioxin-6-yl)-1-phenyl-1H-pyrazol-4-yl)methoxy)methyl)-1H-1,2,3-triazole], the EC50 in data set [1] (setting [9]) was 1.78 µM; in data set [2], more than 64 µM; in data set [3] (setting [10]), 32.5 µM; in data set [4] (setting [11]) it was more than 64 µM. In data set [5], this molecule displayed an EC50 at 3 days of more than 64 µM.

Consider `c1ccc(Cc2cn(-c3ccccc3)nc2-c2ccc3c(c2)OCCO3)cc1` [Compound 49, 4-benzyl-3-(2,3-dihydrobenzo[b][1,4]dioxin-6-yl)-1-phenyl-1H-pyrazole], for which the EC50 amounted to 16.5 µM in data set [1] (setting [9]), 7.35 µM in data set [2], 38.1 µM in data set [3] (setting [10]) and 29.3 µM in data set [4] (setting [11]). This molecule yielded an EC50 at 3 days in data set [5] of 59.5 µM.

Consider `Clc1ccc(Cc2cn(-c3ccccc3)nc2-c2ccc3c(c2)OCCO3)cc1` [Compound 50, 4-(4-chlorobenzyl)-3-(2,3-dihydrobenzo[b][1,4]dioxin-6-yl)-1-phenyl-1H-pyrazole], for which the EC50 turned out to be 8.52 µM in data set [1] (setting [9]), 7.53 µM in data set [2], 12.7 µM in data set [3] (setting [10]) and 27.2 µM in data set [4] (setting [11]). This molecule also returned an EC50 at 3 days in data set [5] of more than 64 µM.

For `FCc1cn(-c2ccccc2)nc1-c1ccc2c(c1)OCCO2` [Compound 52, 3-(2,3-dihydrobenzo[b][1,4]dioxin-6-yl)-4-(fluoromethyl)-1-phenyl-1H-pyrazole], the EC50 was 27.1 µM in data set [1] (setting [9]), 23.9 µM in data set [2], more than 64 µM in data set [3] (setting [10]) and more than 64 µM in data set [4] (setting [11]). The same molecule came in with an EC50 at 3 days in data set [5] of 22.6 µM.

As to `FC(F)c1cn(-c2ccccc2)nc1-c1ccc2c(c1)OCCO2` [Compound 53, 4-(difluoromethyl)-3-(2,3-dihydrobenzo[b][1,4]dioxin-6-yl)-1-phenyl-1H-pyrazole], the EC50 in data set [1] (setting [9]) was 19 µM; in data set [2], 6.44 µM; in data set [3] (setting [10]), 32.5 µM; in data set [4] (setting [11]), 30.3 µM. The molecule also yielded an EC50 at 3 days in data set [5] of 21.8 µM.

As for `O=C(NCc1cn(-c2ccccc2)nc1-c1ccc2c(c1)OCCO2)Nc1ccc(F)cc1` [Compound 54, 1-((3-(2,3-dihydrobenzo[b][1,4]dioxin-6-yl)-1-phenyl-1H-pyrazol-4-yl)methyl)-3-(4-fluorophenyl)urea], the EC50 in data set [1] (setting [9]), in data set [2], in data set [3] (setting [10]) and in data set [4] (setting [11]) was more than 64 µM in each case. Further, in data set [5], the half-maximal effective concentration (EC50) at 3 days is more than 64 µM.

On to `c1ccc(-n2cc(CNCCc3ccccn3)c(-c3ccc4c(c3)OCO4)n2)cc1` [Compound 59, N-((3-(benzo[d] [1,3]dioxol-5-yl)-1-phenyl-1H-pyrazol-4-yl)methyl)-2-(pyridin-2-yl)ethan-1-amine hydrochloride], for which the EC50 in data set [1] (setting [6]) came to 1.61 µM; in data set [2], 6.71 µM; in data set [3] (setting [7]), 8.06 µM; in data set [4] (setting [8]), 1.64 µM. Moreover, in data set [5], the EC50 at 3 days was 26.6 µM.

Regarding `CNC(=O)c1cc(Oc2ccc(NCc3cn(-c4ccccc4)nc3-c3ccc4c(c3)OCO4)cc2)ccn1` [Compound 60, 4-(4-(((3-(benzo[d] [1,3]dioxol-5-yl)-1-phenyl-1H-pyrazol-4-yl)methyl)amino)phenoxy)-N-methylpicolinamide], the EC50 in data set [1] (setting [9]) is 5.18 µM; in data set [2] it was more than 64 µM; in data set [3] (setting [10]), 32.5 µM; in data set [4] (setting [11]), more than 64 µM. In data set [5], this molecule had an EC50 at 3 days of 60.7 µM.

In the case of `COc1ccc(-c2nn(-c3ccccc3)cc2CNCCc2ccccn2)cc1` [Compound 64, N-((3-(4-methoxyphenyl)-1-phenyl-1H-pyrazol-4-yl)methyl)-2-(pyridin-2-yl)ethan-1-amine hydrochloride], the EC50 came to 1.57 µM in data set [1] (setting [6]), 7.15 µM in data set [2], 8.06 µM in data set [3] (setting [7]) and 1.7 µM in data set [4] (setting [8]). The EC50 at 3 days in data set [5] was 28.9 µM.

As to `COc1ccc(-c2nn(-c3ccccc3)cc2CN2CCCC2)cc1` [Compound 65, 3-(4-methoxyphenyl)-1-phenyl-4-(pyrrolidin-1-ylmethyl)-1H-pyrazole oxalate], the EC50 in data set [1] (setting [9]) stood at 6.43 µM; in data set [2], 28.9 µM; in data set [3] (setting [10]) it was 33.2 µM; in data set [4] (setting [11]) it was 6.87 µM. The same molecule registered an EC50 at 3 days in data set [5] of 32 µM.

The EC50 is the concentration giving half of the maximal effect.

The record behind these values is article PMC11487390, “Design and Synthesis of 1,3-Diarylpyrazoles and Investigation of Their Cytotoxicity and Antiparasitic Profile” (International Journal of Molecular Sciences, 2024).
